Experimental data taken from patent publication US20190224202A1, “STABLE LIQUID FORMULATIONS OF PEMETREXED” (LEIUTIS PHARMACEUTICALS PVT. LTD., priority 2015, published 2019).

How the values were obtained:
[1] = Solubility study of Pemetrexed diacid in various amino acids in water; format: physicochemical; conditions: 25° C.
Procedure: Solubility studies of Pemetrexed were performed with various amino acids alone and in combination with other excipients in water at 25° C. to check the solubility.

[2] = Solubility of Pemetrexed diacid in water (statement); format: physicochemical

Nc1nc2[nH]cc(CCc3ccc(C(=O)N[C@@H](CCC(=O)O)C(=O)O)cc3)c2c(=O)[nH]1 [Pemetrexed diacid, N-{4-[2-(2-Amino-4-oxo-4,7-dihydro-1H-pyrrolo[2,3-d]pyrimidin-5-yl)ethyl]benzoyl}-L-glutamic acid]
Description (solubility study) ([1]; Pemetrexed diacid 50 mg, Arginine 116 mg, Water 1 ml): Clear
Description (solubility study) ([1]; Pemetrexed diacid 50 mg, Arginine 133 mg, Water 1 ml): Clear
Description (solubility study) ([1]; Pemetrexed diacid 50 mg, Arginine 166 mg, Water 1 ml): Clear
Description (solubility study) ([1]; Pemetrexed diacid 100 mg, Histidine 100 mg, Glycine 50 mg, Ammonium acetate 100 mg, Sucrose 50 mg, Water 2.5 ml): Clear
Description (solubility study) ([1]; Pemetrexed diacid 100 mg, Histidine 100 mg, Glycine 50 mg, Ammonium acetate 100 mg, Water 2.5 ml): Clear
Description (solubility study) ([1]; Pemetrexed diacid 100 mg, Histidine 100 mg, Glycine 100 mg, Ammonium acetate 100 mg, Sucrose 50 mg, Water 2.5 ml): Clear
Description (solubility study) ([1]; Pemetrexed diacid 100 mg, Histidine 100 mg, Glycine 100 mg, Ammonium acetate 100 mg, Water 2.5 ml): Clear
Description (solubility study) ([1]; Pemetrexed diacid 100 mg, Histidine 100 mg, Glycine 100 mg, Sucrose 50 mg, Water 2.5 ml): Clear
Description (solubility study) ([1]; Pemetrexed diacid 100 mg, Histidine 100 mg, Glycine 100 mg, Water 2.5 ml): Clear
Description (solubility study) ([1]; Pemetrexed diacid 100 mg, Histidine 100 mg, Glycine 200 mg, Ammonium acetate 100 mg, Sucrose 50 mg, Water 2.5 ml): Clear
Description (solubility study) ([1]; Pemetrexed diacid 100 mg, Histidine 100 mg, Glycine 200 mg, Ammonium acetate 100 mg, Water 2.5 ml): Clear
Solubility in water [2]: practically insoluble
